The assay has as its target T1, human MCH-1 receptor (Homo sapiens, UniProt Q99705).
T1 construct: expressed in transfected cells
The experiment in a line: Ca2+ mobilization experiment for the MCH-1 receptor (FLIPR), inhibition of MCH-induced Ca2+ mobilization. The class given is cell-based. The conditions noted are these: CHO cells stably expressing human MCH-1 receptor, inhibition of MCH-induced Ca2+ response, read-out: MCH-1 pIC50 (converted). In a few lines: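 Calcium-dye loading (kit with probenecid) of CHO cells stably expressing human MCH-1 ran 90 min at 37C. Cells were then preincubated with compound for 20 min at RT before a submaximal MCH challenge, and Ca2+ was recorded by FLIPR. Responses were expressed as % of compound-free response, and pIC50 came from sigmoidal fits.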
In general terms: Calcium assays in cells follow changes in intracellular calcium, usually with a dye or a luminescent sensor.
T1 sequence (Q99705 whole entry): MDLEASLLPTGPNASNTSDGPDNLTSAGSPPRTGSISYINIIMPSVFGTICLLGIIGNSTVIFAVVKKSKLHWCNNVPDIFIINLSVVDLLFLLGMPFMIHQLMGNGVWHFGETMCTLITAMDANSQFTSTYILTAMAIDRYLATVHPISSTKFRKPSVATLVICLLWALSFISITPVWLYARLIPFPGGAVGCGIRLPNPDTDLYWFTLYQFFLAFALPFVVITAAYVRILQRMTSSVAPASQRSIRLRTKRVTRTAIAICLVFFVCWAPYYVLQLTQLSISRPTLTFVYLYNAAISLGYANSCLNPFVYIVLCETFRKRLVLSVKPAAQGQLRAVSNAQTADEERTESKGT
For `CNC1CCN(c2ccc(-n3ccnc(NCCc4ccccc4)c3=O)cc2OC)C1` (centres unmarked) [3-12], the IC50 is 63.1 nM.
As to `COc1cc(-n2ccnc(NCCc3ccccc3)c2=O)ccc1OCCNC(=O)c1ccncc1` [3-44], the IC50 is 200 nM.
Take `COc1cc(-n2ccnc(NCCc3ccccc3)c2=O)ccc1OCCN1CCNC(=O)C1` [3-65]: the IC50 is 158 nM.
Regarding `CN(CCOc1ccc(-n2ccnc(NCCOc3ccccc3)c2=O)cc1)C1CCCCC1` [1-25], the IC50 was 631 nM.
Turning to `COc1cc(-n2ccnc(NCCOc3ccccc3)c2=O)ccc1OCCCN1CCOCC1` [1-80], the IC50 was 63.1 nM.
For `COc1cc(-n2ccnc(NCCc3ccccc3)c2=O)ccc1OCCCN1CCC(F)(F)CC1` [3-74] the value was 31.6 nM; for `O=c1c(NCCOc2ccccc2)nccn1-c1ccc2c(cnn2CCN2CCCC2)c1` [3-85], 398 nM; for `O=c1c(NCCOc2ccc(F)cc2)nccn1-c1ccc(OCCN2CCCC2)cc1` [2-17], 2000 nM.
On to `CN(C(=O)OC(C)(C)C)C1CCN(c2ccc(-n3ccnc(NCCc4ccccc4)c3=O)cc2)C1` (centres unmarked) [3-05], for which the IC50 is 158 nM.
On to `COc1cc(-n2ccnc(SCCc3ccccc3)c2=O)ccc1C=CCN1CCCC1` [6-12], for which the IC50 was 25.1 nM.
Regarding `COc1cc(-n2ccnc(NCCOc3ccccc3Cl)c2=O)ccc1OCCN1CCCC1` [2-28], the IC50 was 79.4 nM.
On to `CN(C)CC(=O)Nc1ccc(-n2ccnc(NCCOc3ccccc3)c2=O)cc1` [1-22], for which the IC50 is 2000 nM.
Take `COc1cc(-n2ccnc(CCCOc3ccccc3)c2=O)ccc1OCCN1CCCC1` [2-08]: the IC50 was 158 nM.
For `COc1cc(-n2ccnc(NCCc3ccccc3)c2=O)ccc1NC1CCNC1` (centres unmarked) [3-24], the IC50 was 200 nM.
For `COc1cc(-n2ccnc(NCCOc3ccccc3)c2=O)ccc1OCCN1CCC(F)(F)CC1` [1-73] the value was 50.1 nM; for `COc1cc(-n2ccnc(NCCc3ccccc3)c2=O)ccc1NC1CCN(C)C1` (centres unmarked) [3-25], 63.1 nM.
In the case of `COc1cc(-n2ccnc(NCCOc3ccccc3)c2=O)ccc1OCCN1CCC(F)CC1` [1-70], the IC50 is 12.6 nM.
With `Cc1cc(-n2ccnc(NCCOc3ccccc3)c2=O)ccc1OCCN1CCCC1` [1-48], the IC50 was 50.1 nM.
`COc1cc(-n2ccnc(NCCOc3ccccc3)c2=O)ccc1OCCCN1CCC(O)C1` (centres unmarked) [1-76]: the IC50 is 126 nM.
As for `COc1cc(-n2ccnc(NCCc3ccccc3)c2=O)ccc1OCCN1CCOC[C@H]1C` [3-61], the IC50 is 79.4 nM.
For the compound `COc1cc(-n2ccnc(SCCc3ccccc3)c2=O)ccc1N1CC[C@@H](N(C)C)C1` [6-06], the IC50 was 15.8 nM.
`COc1cc(-n2ccnc(N3CCC(c4ccccc4OC)C3)c2=O)ccc1OCCN1CCCC1` (centres unmarked) [4-06]: the IC50 is 6310 nM.
`COc1cc(-n2ccnc(NCCc3ccccc3)c2=O)ccc1OC1CCN(C)C1` (centres unmarked) [3-32]: the IC50 is 79.4 nM.
As to `COc1cc(-n2ccnc(SCCc3ccccc3)c2=O)ccc1OC1CCN(C(C)C)C1` (centres unmarked) [6-16], the IC50 was 25.1 nM.
Regarding `COc1cc(-n2ccnc(NCCc3ccccc3)c2=O)ccc1OCCN1CCC(F)(F)CC1` [3-56], the IC50 was 39.8 nM.
`COc1cc(-n2ccnc(NCCc3ccccc3)c2=O)ccc1OCCN1CCC(C#N)CC1` [3-51]: the IC50 was 39.8 nM.
As to `COc1cc(-n2ccnc(NCCOc3ccccc3)c2=O)ccc1OCCN1CCC(F)CC1` [1-69], the IC50 is 5.01 nM.
`COc1cc(-n2ccnc(NCCOc3ccccc3)c2=O)ccc1OCCCN1CCCC(CO)C1` (centres unmarked) [1-78]: the IC50 was 79.4 nM.
`COc1cc(-n2ccnc(NCCc3ccccc3)c2=O)ccc1N1CCC(N(C)C)C1` (centres unmarked) [3-13]: the IC50 was 50.1 nM.
For the compound `COc1cc(-n2ccnc(NCCOc3ccccc3)c2=O)ccc1OCCN1CCC(C#N)CC1` [1-71], the IC50 was 100 nM.
For the compound `COc1cc(-n2ccnc(NCCc3ccccc3)c2=O)ccc1N1CCCN(C)CC1` [3-19], the IC50 is 126 nM.
Regarding `COc1cc(-n2ccnc(NCCOc3ccccc3)c2=O)ccc1N1CCC(N(C)C)C1` (centres unmarked) [1-10], the IC50 is 100 nM.
As for `COc1cc(-n2ccnc(NCCc3ccccc3)c2=O)ccc1OCCCN1CCC(C#N)CC1` [3-73], the IC50 was 39.8 nM.
Regarding `O=c1c(NCCOc2ccccc2)nccn1-c1ccc(OCCN2CCCC2)c(Cl)c1` [1-56], the IC50 is 7940 nM.
Turning to `O=c1c(NCCOc2ccccc2)nccn1-c1ccc(OCCN2CCCC2)nc1` [3-91], the IC50 is 3980 nM.
Regarding `COc1cc(-n2ccnc(NCCc3ccccc3)c2=O)ccc1N1CCN(C)CC1` [3-11], the IC50 is 39.8 nM.
In the case of `COc1cc(-n2ccnc(NCCCOc3ccc(F)cc3)c2=O)ccc1OCCN1CCCC1` [2-18] it was 39.8 nM; in that of `COc1cc(-n2ccnc(NCCc3ccc(Cl)cc3Cl)c2=O)ccc1OCCN1CCCC1` [2-39], 200 nM; in that of `CN1CCN(CCOc2ccc(-n3ccnc(NCCc4ccccc4)c3=O)cc2Cl)CC1` [3-82], 50.1 nM.
As to `COc1cc(-n2ccnc(N3CCC(c4ccc(C)cc4)C3)c2=O)ccc1OCCN1CCCC1` (centres unmarked) [4-04], the IC50 was 316 nM.
For the compound `CC(=O)N(C)C1CCN(c2ccc(-n3ccnc(NCCc4ccccc4)c3=O)cc2)C1` (centres unmarked) [3-03], the IC50 was 63.1 nM.
For the compound `COc1cc(-n2ccnc(NCCc3ccccc3)c2=O)ccc1OCCCNC(C)=O` [3-66], the IC50 is 126 nM.
For `COc1cc(-n2ccnc(OCCOc3ccccc3)c2=O)ccc1OCCN1CCCC1` [2-14] the value was 100 nM; for `CCCC(=O)NCCOc1ccc(-n2ccnc(NCCc3ccccc3)c2=O)cc1OC` [3-39], 63.1 nM.
For `CN(C(=O)OC(C)(C)C)C1CCN(c2ccc(-n3ccnc(NCCOc4ccccc4)c3=O)cc2)C1` (centres unmarked) [1-04] the value was 1580 nM; for `COCCN(C)CCOc1ccc(-n2ccnc(NCCOc3ccccc3)c2=O)cc1` [1-29], 1580 nM; for `COc1cc(-n2ccnc(NCCc3ccccc3)c2=O)ccc1OCCCN1CCC(F)CC1` [3-72], 25.1 nM.
In the case of `COc1cc(-n2ccnc(NCCc3ccccc3)c2=O)ccc1OCCN1CCCC(CO)C1` (centres unmarked) [3-49] it was 31.6 nM; in that of `COc1cc(-n2ccnc(NCCc3ccccc3)c2=O)ccc1N1CCC(N2CCC(O)C2)C1` (centres unmarked) [3-20], 126 nM; in that of `CCCC(=O)N(C)CCOc1ccc(-n2ccnc(NCCOc3ccccc3)c2=O)cc1` [1-31], 316 nM.
Regarding `COc1cc(-n2ccnc(NCCc3ccccc3)c2=O)ccc1OCCCN1CCCC(CO)C1` (centres unmarked) [3-71], the IC50 is 39.8 nM.
For `COc1cc(-n2ccnc(NCCc3ccccc3)c2=O)ccc1N1CCC(N(C)C(C)=O)C1` (centres unmarked) [3-10] the value was 79.4 nM.
Turning to `COc1ccc(OCCCNc2nccn(-c3ccc(OCCN4CCCC4)c(OC)c3)c2=O)cc1` [2-38], the IC50 was 2000 nM.
`COc1cc(-n2ccnc(NCCc3ccccc3)c2=O)ccc1OCCN1CC(C)OC(C)C1` (centres unmarked) [3-63]: the IC50 was 158 nM.
For `COCCN1CCN(c2ccc(-n3ccnc(NCCc4ccccc4)c3=O)cc2Cl)CC1` [3-80], the IC50 is 79.4 nM.
As to `O=c1c(NCCOc2ccccc2)nccn1-c1ccc(OCCN2CCC(F)CC2)cc1` [1-39], the IC50 is 200 nM.
Regarding `O=c1c(NCCc2ccccc2)nccn1-c1ccc(N2CCN(CCO)CC2)c(Cl)c1` [3-79], the IC50 was 63.1 nM.
Regarding `COc1cc(-n2ccnc(NCCc3ccccc3)c2=O)ccc1N1CCC(NC(C)=O)C1` (centres unmarked) [3-09], the IC50 was 63.1 nM.
As for `COc1cc(-n2ccnc(NCCc3ccccc3)c2=O)ccc1OCCN1[C@H](C)CCC[C@@H]1C` [3-57], the IC50 is 31.6 nM.
In the case of `COc1cc(-n2ccnc(NCCc3ccccc3)c2=O)ccc1OC1CCN(C2CC2)C1` (centres unmarked) [3-33], the IC50 was 50.1 nM.
`CN(C1CCN(c2ccc(-n3ccnc(NCCc4ccccc4)c3=O)cc2)C1)S(C)(=O)=O` (centres unmarked) [3-01]: the IC50 was 100 nM.
Regarding `COc1cc(-n2ccnc(NCCc3ccccc3)c2=O)ccc1OCCCNC(=O)C(C)C` [3-67], the IC50 was 126 nM.
As to `COc1cc(-n2ccnc(NCCc3ccc(Cl)cc3)c2=O)ccc1OCCN1CCCC1` [2-24], the IC50 is 25.1 nM.
`COc1cc(-n2ccnc(NCCc3ccccc3)c2=O)ccc1OCCN1CCC(F)CC1` [3-50]: the IC50 is 20 nM.
In the case of `COc1cc(-n2ccnc(SCCc3ccccc3)c2=O)ccc1OC1CCN(C)C1` (centres unmarked) [6-15] it was 15.8 nM; in that of `COc1cc(-n2ccnc(NCCc3ccc(F)cc3)c2=O)ccc1OCCN1CCCC1` [2-16], 25.1 nM.
In the case of `O=c1c(NCCc2ccccc2)nccn1-c1ccc2nc(N3CCCCC3)ccc2c1` [3-87] it was 200 nM; in that of `COc1cc(-n2ccnc(NCCc3ccccc3Cl)c2=O)ccc1OCCN1CCCC1` [2-22], 100 nM.
Consider `COc1cc(-n2ccnc(NCCOc3ccccc3)c2=O)ccc1OCCNCCO` [1-60], for which the IC50 was 200 nM.
Regarding `CN[C@H]1CCN(c2ccc(-n3ccnc(SCCc4ccccc4)c3=O)cc2OC)C1` [6-02], the IC50 was 10 nM.
Consider `O=c1c(NCCOc2ccccc2Cl)nccn1-c1ccc(OCCN2CCCC2)cc1` [2-27], for which the IC50 was 251 nM.
Regarding `CNC1CCN(c2ccc(-n3ccnc(NCCOc4ccccc4)c3=O)cc2)C1` (centres unmarked) [1-01], the IC50 was 501 nM.
Regarding `COc1cc(-n2ccnc(N(C)CCc3ccccc3)c2=O)ccc1OCCN1CCCC1` [2-05], the IC50 was 501 nM.
For `COc1cc(-n2ccnc(NCCCOc3ccccc3)c2=O)ccc1OC1CCN(C(=O)OC(C)(C)C)CC1` [7-02] the value was 126 nM; for `COc1cc(-n2ccnc(SCCc3ccccc3)c2=O)ccc1OC1CCNC1` (centres unmarked) [6-14], 100 nM; for `COC(=O)C1CCN(CCOc2ccc(-n3ccnc(NCCOc4ccccc4)c3=O)cc2)CC1` [1-42], 158 nM.
In the case of `COc1cc(-n2ccnc(SCCc3cccc(Cl)c3)c2=O)ccc1OCCN1CCCC1` [2-25] it was 126 nM; in that of `COc1cc(-n2ccnc(NCCOc3ccccc3)c2=O)ccc1OCCN(C)C(=O)c1ccccc1` [1-66], 251 nM.
As for `COC(=O)c1cc(-n2ccnc(NCCOc3ccccc3)c2=O)ccc1OCCN1CCCC1` [1-54], the IC50 was 200 nM.
With `COc1cc(-n2ccnc(OCCc3ccccc3)c2=O)ccc1OCCN1CCCC1` [2-06], the IC50 was 79.4 nM.
